From US20100048696A1, “AGRICULTURAL DISEASE CONTROL AGENT” (Idemitsu Kosan Co., Ltd., priority 2007, published 2010)
Like-named read-outs stand apart in the source and are kept apart here.

How the values were obtained:
Ralstonia solanacearum = assay type: cell-based; conditions: 5 minutes
[1] = tested on: Erwinia carotovora var. cartovora; assay: Test using potatoes: blackleg pathogenesis after cutting with disinfected knife; assay type: in vivo, potatoes Norin No. 1
[2] = tested on: Clavibacter michiganense subsp. Nebraskense (ATCC27822); assay: Basic test: cutting knife disinfection, ring rot pathogens; assay type: cell-based; conditions: knife immersed 5 seconds
Pyricularia oryzae = assay type: cell-based; conditions: 5 minutes
Burkholderia glumae = assay: Material disinfection test; assay type: cell-based; conditions: 5 minutes
[3] = tested on: Erwinia carotovora var. cartovora; assay: Basic test: cutting knife disinfection, blackleg pathogens; assay type: cell-based; conditions: knife immersed 5 seconds
Burkholderia plantarii = assay: Material disinfection test; assay type: cell-based; conditions: 5 minutes
[4] = tested on: bacteria pathogens and filamentous fungi pathogens; assay type: cell-based

O=C1C=CC(=O)O1 [Maleic anhydride]
Average value of viable bacteria counts on all materials examined (Ralstonia solanacearum; 2 times solution sprayed): 0 cfu/ml | Average value of viable bacteria counts on all materials examined (Ralstonia solanacearum; 5 times solution sprayed): 0 cfu/ml | Average value of viable bacteria counts on all materials examined (Ralstonia solanacearum; 25 times solution sprayed): 0 cfu/ml | Average value of viable bacteria counts on all materials examined (Ralstonia solanacearum; 50 times solution sprayed): 0 cfu/ml | Average value of viable bacteria counts on all materials examined (Ralstonia solanacearum; 100 times solution sprayed): 0 cfu/ml | Average value of viable bacteria counts on all materials examined (Ralstonia solanacearum; 200 times solution sprayed): 4 cfu/ml | Average value of viable bacteria counts on all materials examined (Ralstonia solanacearum; 500 times solution sprayed): 58 cfu/ml | sterilization in test using potatoes (in words) ([1]; 5 to 10 times solution): complete sterilization | sterilization effect in test using potatoes (in words) ([1]; 50 times solution): high sterilization effect | sterilization of ring rot pathogens (in words) ([2]; 2 to 10 times solutions): complete sterilization | sterilization effect on ring rot pathogens (in words) ([2]; 25 to 50 times solutions): high sterilization effect | average value of viable filamentous fungi counts on all materials examined (Pyricularia oryzae; 2 times solution sprayed): 0 cfu/ml | average value of viable filamentous fungi counts on all materials examined (Pyricularia oryzae; 5 times solution sprayed): 0 cfu/ml | average value of viable filamentous fungi counts on all materials examined (Pyricularia oryzae; 25 times solution sprayed): 0 cfu/ml | average value of viable filamentous fungi counts on all materials examined (Pyricularia oryzae; 50 times solution sprayed): 0 cfu/ml | average value of viable filamentous fungi counts on all materials examined (Pyricularia oryzae; 100 times solution sprayed): 0 cfu/ml | average value of viable filamentous fungi counts on all materials examined (Pyricularia oryzae; 200 times solution sprayed): 32 cfu/ml | average value of viable filamentous fungi counts on all materials examined (Pyricularia oryzae; 500 times solution sprayed): 1.5 × 10^2 cfu/ml | Average value of viable bacteria counts on all materials examined (Burkholderia glumae; 2 times solution sprayed): 0 cfu/ml | Average value of viable bacteria counts on all materials examined (Burkholderia glumae; 5 times solution sprayed): 0 cfu/ml | Average value of viable bacteria counts on all materials examined (Burkholderia glumae; 25 times solution sprayed): 0 cfu/ml | Average value of viable bacteria counts on all materials examined (Burkholderia glumae; 50 times solution sprayed): 0 cfu/ml | Average value of viable bacteria counts on all materials examined (Burkholderia glumae; 100 times solution sprayed): 0 cfu/ml | Average value of viable bacteria counts on all materials examined (Burkholderia glumae; 200 times solution sprayed): 69 cfu/ml | Average value of viable bacteria counts on all materials examined (Burkholderia glumae; 500 times solution sprayed): 2.0 × 10^2 cfu/ml | sterilization of blackleg pathogens (in words) ([3]; 2 to 10 times solutions): complete sterilization | sterilization effect on blackleg pathogens (in words) ([3]; 25 to 50 times solutions): high sterilization effect | Average value of viable bacteria counts on all materials examined (Burkholderia plantarii; 2 times solution sprayed): 0 cfu/ml | Average value of viable bacteria counts on all materials examined (Burkholderia plantarii; 5 times solution sprayed): 0 cfu/ml | Average value of viable bacteria counts on all materials examined (Burkholderia plantarii; 25 times solution sprayed): 0 cfu/ml | Average value of viable bacteria counts on all materials examined (Burkholderia plantarii; 50 times solution sprayed): 0 cfu/ml | Average value of viable bacteria counts on all materials examined (Burkholderia plantarii; 100 times solution sprayed): 0 cfu/ml | Average value of viable bacteria counts on all materials examined (Burkholderia plantarii; 200 times solution sprayed): 7 cfu/ml | Average value of viable bacteria counts on all materials examined (Burkholderia plantarii; 500 times solution sprayed): 1.0 × 10^2 cfu/ml | sterilization in material disinfection test (in words) [4]: complete sterilization
